Data as given in patent US11660293B2, “Substituted 2-azabicyclo[3.1.1]heptane and 2-azabicyclo[3.2.1]octane derivatives as orexin receptor antagonists” (Chronos Therapeutics Limited, priority 2017, dated 2023).

Experiments:
[1] = biological target: human Orexin type 1 receptors (Homo sapiens (Human), UniProt O43613); test: Scintillation Proximity Assay (SPA) binding assay, [3H]SB-674042 displacement, CHO-hOX1 membranes; conditions: for Ki: read-out: OX1 pKi (SPA binding) (converted)
[2] = biological target: human Orexin type 2 receptors (Homo sapiens (Human), UniProt O43614); test: Scintillation Proximity Assay (SPA) binding assay, [3H]EMPA displacement, HEK-hOX2 membranes; conditions: for Ki: read-out: OX2 pKi (SPA binding) (converted)
human Orexin type 2 receptors, sequence (O43614 whole entry): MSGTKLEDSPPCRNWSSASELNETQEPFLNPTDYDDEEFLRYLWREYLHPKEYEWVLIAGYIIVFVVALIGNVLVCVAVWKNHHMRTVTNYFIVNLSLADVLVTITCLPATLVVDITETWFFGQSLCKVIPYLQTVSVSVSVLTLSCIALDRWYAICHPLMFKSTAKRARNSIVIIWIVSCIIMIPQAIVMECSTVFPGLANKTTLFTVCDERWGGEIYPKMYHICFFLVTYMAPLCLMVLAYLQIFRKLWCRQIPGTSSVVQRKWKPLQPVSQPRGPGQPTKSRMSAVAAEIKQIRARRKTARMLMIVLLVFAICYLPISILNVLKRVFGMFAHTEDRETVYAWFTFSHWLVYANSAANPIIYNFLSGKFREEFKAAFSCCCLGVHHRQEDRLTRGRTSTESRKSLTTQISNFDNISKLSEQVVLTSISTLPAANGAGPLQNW

human Orexin type 1 receptors, sequence (O43613 whole entry): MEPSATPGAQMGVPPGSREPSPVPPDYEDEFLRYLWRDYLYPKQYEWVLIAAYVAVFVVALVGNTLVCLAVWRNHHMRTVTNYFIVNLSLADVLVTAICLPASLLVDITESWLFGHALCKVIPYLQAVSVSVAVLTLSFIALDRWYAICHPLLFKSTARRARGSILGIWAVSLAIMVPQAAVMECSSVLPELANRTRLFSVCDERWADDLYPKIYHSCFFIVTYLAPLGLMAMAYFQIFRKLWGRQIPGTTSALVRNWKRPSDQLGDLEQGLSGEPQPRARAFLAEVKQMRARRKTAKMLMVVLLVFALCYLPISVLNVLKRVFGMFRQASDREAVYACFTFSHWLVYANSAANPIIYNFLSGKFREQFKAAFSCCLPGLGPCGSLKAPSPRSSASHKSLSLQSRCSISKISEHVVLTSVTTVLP

`Cc1ccc(-n2nccn2)c(C(=O)N2C3CC(C3)[C@@H](C)C2CNc2cnc3cc(F)c(F)cc3n2)n1` (mixture of isomers) [Example 201, cis-6.7-difluoro-N-({4-methyl-2-[6-methyl-3-(2H-1,2,3-triazol-2-yl)pyridine-2-carbonyl]-2-azabicyclo[3.1.1]heptan-3-yl}methyl)quinoxalin-2-amine] was tested, and the “OX1 pKi (SPA binding)” value ([1]; Table 2, [3H]SB-674042 2 nM) was 7.97 and the “OX2 pKi (SPA binding)” value ([2]; Table 2, [3H]EMPA 2 nM) was 6.55.

With `C[C@@H]1C2CC(C2)N(C(=O)c2cc(Cl)ccc2-n2nccn2)C1CNc1cnc(C(F)(F)F)cn1` (mixture of isomers) [Example 203, cis-N-({2-[5-chloro-2-(2H-1,2,3-triazol-2-yl)benzoyl]-4-methyl-2-azabicyclo[3.1.1]heptan-3-yl}methyl)-5-(trifluoromethyl)pyrazin-2-amine] the “OX1 pKi (SPA binding)” value ([1]; Table 2, [3H]SB-674042 2 nM) was 8.17 and the “OX2 pKi (SPA binding)” value ([2]; Table 2, [3H]EMPA 2 nM) was 5.05.

`C[C@@H]1C2CC(C2)N(C(=O)c2cc(Cl)ccc2-n2nccn2)C1CNc1cnc2ncccc2n1` (mixture of isomers) [Example 206, cis-N-({2-[5-chloro-2-(2H-1,2,3-triazol-2-yl)benzoyl]-4-methyl-2-azabicyclo[3.1.1]heptan-3-yl}methyl)pyrido[2,3-b]pyrazin-2-amine] was tested, and the “OX1 pKi (SPA binding)” value ([1]; Table 2, [3H]SB-674042 2 nM) was 7.79 and the “OX2 pKi (SPA binding)” value ([2]; Table 2, [3H]EMPA 2 nM) was 5.06.

For `C[C@@H]1C2CC(C2)N(C(=O)c2cc(Cl)ccc2-n2nccn2)C1CNc1cnc2cc(F)ccc2n1` (mixture of isomers) [Example 207, cis-N-({2-[5-chloro-2-(2H-1,2,3-triazol-2-yl)benzoyl]-4-methyl-2-azabicyclo[3.1.1]heptan-3-yl}methyl)-6-fluoroquinoxalin-2-amine], the “OX1 pKi (SPA binding)” value ([1]; Table 2, [3H]SB-674042 2 nM) was 8.46 and the “OX2 pKi (SPA binding)” value ([2]; Table 2, [3H]EMPA 2 nM) was 6.44.

With `C[C@@H]1C2CC(C2)N(C(=O)c2nn(C)cc2-c2ccccc2)C1CNc1ccc(C(F)(F)F)cn1` (mixture of isomers) [Example 210, cis-N-{[4-methyl-2-(1-methyl-4-phenyl-1H-pyrazole-3-carbonyl)-2-azabicyclo[3.1.1]heptan-3-yl]methyl}-5-(trifluoromethyl)pyridin-2-amine] the “OX1 pKi (SPA binding)” value ([1]; Table 2, [3H]SB-674042 2 nM) was 8.69 and the “OX2 pKi (SPA binding)” value ([2]; Table 2, [3H]EMPA 2 nM) was 5.84.

In the case of `Cc1cnc(NCC2[C@H](C)C3CC(C3)N2C(=O)c2nc(C)ccc2-n2nccn2)cn1` (mixture of isomers) [Example 216, cis-5-methyl-N-({4-methyl-2-[6-methyl-3-(2H-1,2,3-triazol-2-yl)pyridine-2-carbonyl]-2-azabicyclo[3.1.1]heptan-3-yl}methyl)pyrazin-2-amine], the “OX1 pKi (SPA binding)” value ([1]; Table 2, [3H]SB-674042 2 nM) is reported as 6.94 and the “OX2 pKi (SPA binding)” value ([2]; Table 2, [3H]EMPA 2 nM) is reported as 4.62.

For `Cc1ccc(-n2nccn2)c(C(=O)N2C3CC(C3)[C@@H](C)C2CNc2cncc(C(F)(F)F)n2)n1` (mixture of isomers) [Example 217, cis-N-({4-methyl-2-[6-methyl-3-(2H-1,2,3-triazol-2-yl)pyridine-2-carbonyl]-2-azabicyclo[3.1.1]heptan-3-yl}methyl)-6-(trifluoromethyl)pyrazin-2-amine], the “OX1 pKi (SPA binding)” value ([1]; Table 2, [3H]SB-674042 2 nM) was 6.85 and the “OX2 pKi (SPA binding)” value ([2]; Table 2, [3H]EMPA 2 nM) was 5.29.

For `Cc1ccc(-n2nccn2)c(C(=O)N2C3CC(C3)[C@@H](C)C2CNc2nc3ccc(F)cc3o2)n1` (mixture of isomers) [Example 218, cis-6-fluoro-N-({4-methyl-2-[6-methyl-3-(2H-1,2,3-triazol-2-yl)pyridine-2-carbonyl]-2-azabicyclo[3.1.1]heptan-3-yl}methyl)-1,3-benzoxazol-2-amine], the “OX1 pKi (SPA binding)” value ([1]; Table 2, [3H]SB-674042 2 nM) was 8.33 and the “OX2 pKi (SPA binding)” value ([2]; Table 2, [3H]EMPA 2 nM) was 5.47.

`C[C@@H]1C2CC(C2)N(C(=O)c2cc(F)ccc2-n2nccn2)C1CNc1cnc(C(F)(F)F)cn1` (mixture of isomers) [Example 221, cis-N-({2-[5-fluoro-2-(2H-1,2,3-triazol-2-yl)benzoyl]-4-methyl-2-azabicyclo[3.1.1]heptan-3-yl}methyl)-5-(trifluoromethyl)pyrazin-2-amine] was tested, and the “OX1 pKi (SPA binding)” value ([1]; Table 2, [3H]SB-674042 2 nM) was 7.73 and the “OX2 pKi (SPA binding)” value ([2]; Table 2, [3H]EMPA 2 nM) was 4.94.

In the case of `C[C@@H]1C2CC(C2)N(C(=O)c2cc(F)ccc2-n2nccn2)C1CNc1nc2cccnc2s1` (mixture of isomers) [Example 228, cis-N-({2-[5-fluoro-2-(2H-1,2,3-triazol-2-yl)benzoyl]-4-methyl-2-azabicyclo[3.1.1]heptan-3-yl}methyl)-[1,3]thiazolo[5,4-b]pyridin-2-amine], the “OX1 pKi (SPA binding)” value ([1]; Table 2, [3H]SB-674042 2 nM) is reported as 7.94 and the “OX2 pKi (SPA binding)” value ([2]; Table 2, [3H]EMPA 2 nM) is reported as 5.04.

In the case of `C[C@@H]1C2CC(C2)N(C(=O)c2cc(Cl)ccc2-n2nccn2)C1CNc1nc2cccnc2s1` (mixture of isomers) [Example 234, cis-N-({2-[5-chloro-2-(2H-1,2,3-triazol-2-yl)benzoyl]-4-methyl-2-azabicyclo[3.1.1]heptan-3-yl}methyl)-[1,3]thiazolo[5,4-b]pyridin-2-amine], the “OX1 pKi (SPA binding)” value ([1]; Table 2, [3H]SB-674042 2 nM) is reported as 8.45 and the “OX2 pKi (SPA binding)” value ([2]; Table 2, [3H]EMPA 2 nM) is reported as 5.46.

In the case of `C[C@@H]1C2CC(C2)N(C(=O)c2cc(C#N)ccc2-n2nccn2)C1CNc1cnc(C(F)(F)F)cn1` (mixture of isomers) [Example 237, cis-3-[4-methyl-3-({[5-(trifluoromethyl)pyrazin-2-yl]amino}methyl)-2-azabicyclo[3.1.1]heptane-2-carbonyl]-4-(2H-1,2,3-triazol-2-yl)benzonitrile], the “OX1 pKi (SPA binding)” value ([1]; Table 2, [3H]SB-674042 2 nM) is reported as 7.33 and the “OX2 pKi (SPA binding)” value ([2]; Table 2, [3H]EMPA 2 nM) is reported as 4.82.

In the case of `C[C@@H]1C2CC(C2)N(C(=O)c2cc(C#N)ccc2-n2nccn2)C1CNc1cnc2cc(F)ccc2n1` (mixture of isomers) [Example 238, cis-3-(3-{[(6-fluoroquinoxalin-2-yl)amino]methyl}-4-methyl-2-azabicyclo[3.1.1]heptane-2-carobnyl)-4-(2H-1,2,3-triazol-2-yl)benzonitrile], the “OX1 pKi (SPA binding)” value ([1]; Table 2, [3H]SB-674042 2 nM) is reported as 7.98 and the “OX2 pKi (SPA binding)” value ([2]; Table 2, [3H]EMPA 2 nM) is reported as 6.32.

In the case of `C[C@@H]1C2CC(C2)N(C(=O)c2cc(Cl)ccc2-n2nccn2)C1CNc1nc2cccnc2o1` (mixture of isomers) [Example 242, cis-N-({2-[5-chloro-2-(2H-1,2,3-triazol-2-yl)benzoyl]-4-methyl-2-azabicyclo[3.1.1]heptan-3-yl}methyl)-[1,3]oxazolo[5,4-b]pyridin-2-amine], the “OX1 pKi (SPA binding)” value ([1]; Table 2, [3H]SB-674042 2 nM) is reported as 8.1 and the “OX2 pKi (SPA binding)” value ([2]; Table 2, [3H]EMPA 2 nM) is reported as 5.14.

`C[C@@H]1C2CC(C2)N(C(=O)c2nn(C)cc2-c2ncccn2)C1CNc1cnc(C(F)(F)F)cn1` (mixture of isomers) [Example 245, cis-N-({4-methyl-2-[1-methyl-4-(pyrimidin-2-yl)-1H-pyrazole-3-carbonyl]-2-azabicyclo[3.1.1]heptan-3-yl}methyl)-5-(trifluoromethyl)pyrazin-2-amine] was tested, and the “OX1 pKi (SPA binding)” value ([1]; Table 2, [3H]SB-674042 2 nM) was 7.55 and the “OX2 pKi (SPA binding)” value ([2]; Table 2, [3H]EMPA 2 nM) was 4.49.

`C[C@@H]1C2CC(C2)N(C(=O)c2ccc(Cl)cc2-n2nccn2)C1CNc1cnc(C(F)(F)F)cn1` (mixture of isomers) [Example 246, cis-N-({2-[4-chloro-2-(2H-1,2,3-triazol-2-yl)benzoyl]-4-methyl-2-azabicyclo[3.1.1]heptan-3-yl}methyl)-5-(trifluoromethyl)pyrazin-2-amine] was tested, and the “OX1 pKi (SPA binding)” value ([1]; Table 2, [3H]SB-674042 2 nM) was 7.57 and the “OX2 pKi (SPA binding)” value ([2]; Table 2, [3H]EMPA 2 nM) was 5.61.

For `Cc1ccc(-c2ncccn2)c(C(=O)N2C3CC(C3)[C@@H](C)C2CNc2cnc(C(F)(F)F)cn2)n1` (mixture of isomers) [Example 248, cis-N-({4-methyl-2-[6-methyl-3-(pyrimidin-2-yl)pyridine-2-carbonyl]-2-azabicyclo[3.1.1]heptan-3-yl}methyl)-5-(trifluoromethyl)pyrazin-2-amine], the “OX1 pKi (SPA binding)” value ([1]; Table 2, [3H]SB-674042 2 nM) was 7.76 and the “OX2 pKi (SPA binding)” value ([2]; Table 2, [3H]EMPA 2 nM) was 4.58.

With `Cc1nc(C(=O)N2[C@H]3C[C@H](C3)[C@@H](C)[C@H]2COc2ccc(F)cc2)c(-c2ccccn2)s1` (racemic) [Example 132, cis-3-[(4-fluorophenoxy)methyl]-4-methyl-2-[2-methyl-5-(pyridin-2-yl)-1,3-thiazole-4-carbonyl]-2-azabicyclo[3.1.1]heptane] the “OX1 pKi (SPA binding)” value ([1]; Table 2, [3H]SB-674042 2 nM) was 7.97 and the “OX2 pKi (SPA binding)” value ([2]; Table 2, [3H]EMPA 2 nM) was 6.72.

With `Cc1nc(C(=O)N2C3CC(C3)[C@H](F)[C@H]2COc2ccc(F)cn2)c(-c2ccccc2)s1` (single isomer, unassigned) [Example 63, (3R,4S or 3S,4R)-4-fluoro-3-{[(5-fluoropyridin-2-yl)oxy]methyl}-2-(2-methyl-5-phenyl-1,3-thiazole-4-carbonyl)-2-azabicyclo[3.1.1]heptane] the “OX1 pKi (SPA binding)” value ([1]; Table 1, [3H]SB-674042 2 nM) was 8.06 and the “OX2 pKi (SPA binding)” value ([2]; Table 1, [3H]EMPA 2 nM) was 6.37.

With `Cc1nc(C(=O)N2C3CC(C3)[C@@H](C)[C@@H]2COc2cc3ccccc3cn2)c(-c2ccccc2)s1` (single isomer, unassigned) [Example 86, 3-{[(3R,4R or 3S,4S)-4-methyl-2-(2-methyl-5-phenyl-1,3-thiazole-4-carbonyl)-2-azabicyclo[3.1.1]heptan-3-yl]methoxy}isoquinoline] the Ki ([1]; Table 1, [3H]SB-674042 2 nM) was 89.1 nM and the Ki ([2]; Table 1, [3H]EMPA 2 nM) was 1290 nM.

For `Cc1nc(C(=O)N2C3CC(C3)[C@@H](C)[C@@H]2COc2cc3ccccc3cn2)c(-c2ccccc2)s1` (single isomer, unassigned) [Example 88, 3-{[(3S,4S or 3R,4R)-4-methyl-2-(2-methyl-5-phenyl-1,3-thiazole-4-carbonyl)-2-azabicyclo[3.1.1]heptan-3-yl]methoxy}isoquinoline], the Ki ([1]; Table 1, [3H]SB-674042 2 nM) was 12 nM and the Ki ([2]; Table 1, [3H]EMPA 2 nM) was 275 nM.

Compound `Cc1nc(C(=O)N2C3CC(C3)[C@H](C)[C@@H]2COc2cc3ccccc3cn2)c(-c2ccccc2)s1` (single isomer, unassigned) [Example 89, 3-{[(3S,4R or 3R,4S)-4-methyl-2-(2-methyl-5-phenyl-1,3-thiazole-4-carbonyl)-2-azabicyclo[3.1.1]heptan-3-yl]methoxy}isoquinoline] has a Ki ([1]; Table 1, [3H]SB-674042 2 nM) of 1.38 nM and a Ki ([2]; Table 1, [3H]EMPA 2 nM) of 1000 nM.

`Cc1ccc(-c2ncccn2)c(C(=O)N2C3CC(C3)[C@H](C)[C@@H]2COc2ccc(F)cc2)n1` (single isomer, unassigned) [Example 91, (3S,4R or 3R,4S)-3-(4-fluorophenoxymethyl)-4-methyl-2-[6-methyl-3-(pyrimidin-2-yl)pyridine-2-carbonyl]-2-azabicyclo[3.1.1]heptane] gave a Ki ([1]; Table 1, [3H]SB-674042 2 nM) of 3.47 nM and a Ki ([2]; Table 1, [3H]EMPA 2 nM) of 35.5 nM.
